We go through 26 compounds from US20070049593A1 (priority 2004, published 2007).

Counter-ions that a name gives are not always drawn. Like-named read-outs stand apart in the source and are kept apart here. Bounds are passed on as bounds.

The experiment concerns the target T1, HCV polymerase (Hepatitis C virus genotype 1b, UniProt P26663).
T1 construct: a region encoding NS5B (J Virol 1991 March, 65(3), 1105-13, 544 amino acids after deletion of 47 amino acids on the C-terminal); 6xHis (C); made in house; host or cells: Escherichia coli
The experiment in a line: biochemical. Details: species or system HCV BK strain. In a few lines: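 Recombinant HCV BK-strain NS5B (C-terminal 47 aa deleted, His6-tagged, E. coli), 0.5 μg/ml, run with 5 μg/ml in vitro-transcribed RNA template (polyU/3′X), ATP/GTP/CTP 50 μM, UTP 2 μM plus [3H]UTP, pH 7.5, 25° C, 90 min. TCA-precipitated RNA counted by scintillation; IC50 from activity with vs without compound.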

T1 sequence (P26663 2420-2963): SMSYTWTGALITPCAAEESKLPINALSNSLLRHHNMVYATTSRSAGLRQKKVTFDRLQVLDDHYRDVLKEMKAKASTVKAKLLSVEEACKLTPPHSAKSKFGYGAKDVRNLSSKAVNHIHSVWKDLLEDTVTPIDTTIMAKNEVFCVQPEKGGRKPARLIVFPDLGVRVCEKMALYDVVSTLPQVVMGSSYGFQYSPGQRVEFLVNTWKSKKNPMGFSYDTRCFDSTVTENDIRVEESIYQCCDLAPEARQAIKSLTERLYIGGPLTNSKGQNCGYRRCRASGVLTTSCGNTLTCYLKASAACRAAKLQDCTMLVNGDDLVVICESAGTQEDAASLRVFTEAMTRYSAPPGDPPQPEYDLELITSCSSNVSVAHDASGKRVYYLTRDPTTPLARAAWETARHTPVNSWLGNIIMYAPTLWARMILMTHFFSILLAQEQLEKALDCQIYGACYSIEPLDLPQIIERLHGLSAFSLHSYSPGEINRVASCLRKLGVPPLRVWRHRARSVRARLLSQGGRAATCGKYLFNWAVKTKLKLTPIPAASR

Regarding `CCN1CCCC(CCN2CCn3c(c(C4CCCCC4)c4ccc(C(=O)O)cc43)-c3ccc(Cl)cc32)C1` (centres unmarked) [Example 1-261, 3-chloro-13-cyclohexyl-5-[2-(1-ethylpiperidin-3-yl)ethyl]-6,7-dihydro-5H-benzo[5,6][1,4]diazepino[7,1-a]indole-10-carboxylic acid dihydrochloride], the IC50 was < 100 nM.
Still for that read-out and setting: in the case of `O=C(NC1(C(=O)NC2(C(=O)O)CCC2)CCC1)c1ccc2c(C3CCCCC3)c3n(c2c1)CCOc1ccccc1-3` [Example 2-151, 1-({1-[(12-cyclohexyl-6,7-dihydro-5-oxa-7a-azadibenzo[a,e]azulene-9-carbonyl)amino]cyclobutanecarbonyl}amino)cyclobutanecarboxylic acid] it was < 100 nM.
On the same count and under the same terms, in the case of `CCN(CCN1CCC(OC)CC1)c1cccc2c1OCCn1c-2c(C2CCCCC2)c2ccc(C(=O)O)cc21` [Example 2-272, 12-cyclohexyl-4-{N-ethyl-N-[2-(4-methoxypiperidin-1-yl)ethyl]amino}-6,7-dihydro-5-oxa-7a-azadibenzo[a,e]azulene-9-carboxylic acid dihydrochloride] it was < 100 nM.
The same measure, in the same setting: for `CCN1CCCN(CCN2CCn3c(c(C4CCCCC4)c4ccc(C(=O)O)cc43)-c3ccccc32)CC1` [Example 1-286, 13-cyclohexyl-5-[2-(4-ethyl-1,4-diazepan-1-yl)ethyl]-6,7-dihydro-5H-benzo[5,6][1,4]diazepino[7,1-a]indole-10-carboxylic acid trihydrochloride] the value was < 100 nM.
`CC(C)OCC1CCCN(CCN2CCn3c(c(C4CCCCC4)c4ccc(C(=O)O)cc43)-c3ccc(Cl)cc32)C1` (centres unmarked) [Example 1-406, 3-chloro-13-cyclohexyl-5-[2-(3-isopropoxymethylpiperidin-1-yl)ethyl]-6,7-dihydro-5H-benzo[5,6][1,4]diazepino[7,1-a]indole-10-carboxylic acid dihydrochloride]: the IC50 is < 100 nM.
Consider `O=C(O)c1ccc2c(C3CCCCC3)c3n(c2c1)CCN(CCN1CCC[C@H](COc2ccccc2)C1)c1ccccc1-3` [Example 1-485, 13-cyclohexyl-5-[2-((S)-3-phenoxymethylpiperidin-1-yl)ethyl]-6,7-dihydro-5H-benzo[5,6][1,4]diazepino[7,1-a]indole-10-carboxylic acid dihydrochloride], for which the IC50 is < 100 nM.
The same measure, in the same setting: for `Cc1ccc2c(c1)N(CCC1CCCCN1C)CCn1c-2c(C2CCCCC2)c2ccc(C(=O)O)cc21` (centres unmarked) [Example 1-287, 13-cyclohexyl-3-methyl-5-[2-(1-methylpiperidin-2-yl)ethyl]-6,7-dihydro-5H-benzo[5,6][1,4]diazepino[7,1-a]indole-10-carboxylic acid dihydrochloride] the value was < 100 nM; for `COCCN1CCn2c(c(C3CCCCC3)c3ccc(C(=O)O)cc32)-c2ccc(OC)cc21` [Example 1-479, 13-cyclohexyl-3-methoxy-5-(2-methoxyethyl)-6,7-dihydro-5H-benzo[5,6][1,4]diazepino[7,1-a]indole-10-carboxylic acid], < 100 nM; for `CC(C)OC(=O)N1CCN(CCN2CCn3c(c(C4CCCCC4)c4ccc(C(=O)O)cc43)-c3ccccc32)CC1` [Example 1-226, 13-cyclohexyl-5-[2-(4-isopropoxycarbonylpiperazin-1-yl)ethyl]-6,7-dihydro-5H-benzo[5,6][1,4]diazepino[7,1-a]indole-10-carboxylic acid dihydrochloride], < 100 nM.
The same measure, in the same setting: for `O=C(O)c1ccc2c(C3CCCCC3)c3n(c2c1)CCN(CCN1CCC(O)CC1)c1ccccc1-3` [Example 1-42, 13-cyclohexyl-5-[2-(4-hydroxypiperidin-1-yl)ethyl]-6,7-dihydro-5H-benzo[5,6][1,4]diazepino[7,1-a]indole-10-carboxylic acid dihydrochloride] the value was < 100 nM; for `COCCN(CCN1CCCCC1)c1cccc2c1OCCn1c-2c(C2CCCCC2)c2ccc(C(=O)O)cc21` [Example 2-482, 12-cyclohexyl-4-{N-(2-methoxyethyl)-N-[2-(piperidin-1-yl)ethyl]amino}-6,7-dihydro-5-oxa-7a-azadibenzo[a,e]azulene-9-carboxylic acid dihydrochloride], < 100 nM; for `CC1CCCCN1CCN1CCn2c(c(C3CCCCC3)c3ccc(C(=O)O)cc32)-c2ccc(Cl)cc21` (centres unmarked) [Example 1-213, 3-chloro-13-cyclohexyl-5-[2-(2-methylpiperidin-1-yl)ethyl]-6,7-dihydro-5H-benzo[5,6][1,4]diazepino[7,1-a]indole-10-carboxylic acid dihydrochloride], < 100 nM.
On the same count and under the same terms, in the case of `CNC(=O)[C@H](Cc1ccc(NC(=O)OC)cc1)NC(=O)c1ccc2c(C3CCCCC3)c3n(c2c1)CCOc1cc(OC)ccc1-3` [Example 2-384, methyl (4-{(S)-2-[(12-cyclohexyl-3-methoxy-6,7-dihydro-5-oxa-7a-azadibenzo[a,e]azulene-9-carbonyl)amino]-2-(methylcarbamoyl)ethyl}phenyl)carbamate] it was < 100 nM.
Take `O=C(NCCc1ccc(O)cc1)c1ccc2c(C3CCCCC3)c3n(c2c1)CCOc1ccccc1-3` [Example 2-205, N-[2-(4-hydroxyphenyl)ethyl]-12-cyclohexyl-6,7-dihydro-5-oxa-7a-azadibenzo[a,e]azulene-9-carboxamide]: the IC50 is < 100 nM.
Still for that read-out and setting: in the case of `COC(=O)[C@H](Cc1ccc(NC(=O)OCc2ccccc2)cc1)NC(=O)c1ccc2c(C3CCCCC3)c3n(c2c1)CCOc1cc(OC)ccc1-3` [Example 2-317, methyl (S)-3-(4-benzyloxycarbonylaminophenyl)-2-[(12-cyclohexyl-3-methoxy-6,7-dihydro-5-oxa-7a-azadibenzo[a,e]azulene-9-carbonyl)amino]propionate] it was < 100 nM; in that of `O=C(O)c1ccc2c(C3CCCCC3)c3n(c2c1)CCN(CCN1CCC[C@@H](COc2ccccc2)C1)c1ccccc1-3` [Example 1-497, 13-cyclohexyl-5-[2-((R)-3-phenoxymethylpiperidin-1-yl)ethyl]-6,7-dihydro-5H-benzo[5,6][1,4]diazepino[7,1-a]indole-10-carboxylic acid dihydrochloride], < 100 nM; in that of `O=C(NCC1(O)CCCCC1)c1ccc2c(C3CCCCC3)c3n(c2c1)CCOc1ccccc1-3` [Example 2-206, N-(1-hydroxycyclohexylmethyl)-12-cyclohexyl-6,7-dihydro-5-oxa-7a-azadibenzo[a,e]azulene-9-carboxamide], 100 to 1000 nM.
Same read-out and setting: for `Cc1ccc2c(c1)N(CCCCN1CCCCC1)CCn1c-2c(C2CCCCC2)c2ccc(C(=O)O)cc21` [Example 1-425, 13-cyclohexyl-3-methyl-5-[4-(piperidin-1-yl)butyl]-6,7-dihydro-5H-benzo[5,6][1,4]diazepino[7,1-a]indole-10-carboxylic acid dihydrochloride] the value was < 100 nM.
For `COC[C@@H]1CCCN(CCN2CCn3c(c(C4CCCCC4)c4ccc(C(=O)O)cc43)-c3ccc(C)cc32)C1` [Example 1-416, 13-cyclohexyl-5-[2-((R)-3-methoxymethylpiperidin-1-yl)ethyl]-3-methyl-6,7-dihydro-5H-benzo[5,6][1,4]diazepino[7,1-a]indole-10-carboxylic acid dihydrochloride], the IC50 (read-out: HCV polymerase inhibitory activity IC50, 25° C., 90 min, [5,6-3H]UTP incorporation into RNA) is < 100 nM.
For `O=C(O)c1ccc2c(C3CCCCC3)c3n(c2c1)CCN(CCC1CCCN(C2CC2)C1)c1cc(Cl)ccc1-3` (centres unmarked) [Example 1-342, 3-chloro-13-cyclohexyl-5-[2-(1-cyclopropylpiperidin-3-yl)ethyl]-6,7-dihydro-5H-benzo[5,6][1,4]diazepino[7,1-a]indole-10-carboxylic acid dihydrochloride], the IC50 was < 100 nM.
Still for that read-out and setting: in the case of `O=C(O)c1ccc2c(C3CCCCC3)c3n(c2c1)CCOc1cc(OCc2ccccc2)ccc1-3` [Example 2-3, 3-benzyloxy-12-cyclohexyl-6,7-dihydro-5-oxa-7a-azadibenzo[a,e]azulene-9-carboxylic acid] it was < 100 nM; in that of `Cc1ccc2c(c1)N(CCN1CCCC(O)CC1)CCn1c-2c(C2CCCCC2)c2ccc(C(=O)O)cc21` (centres unmarked) [Example 1-538, 13-cyclohexyl-5-[2-(4-hydroxyazepan-1-yl)ethyl]-3-methyl-6,7-dihydro-5H-benzo[5,6][1,4]diazepino[7,1-a]indole-10-carboxylic acid dihydrochloride], < 100 nM; in that of `Cn1c(NC(=O)c2ccc3c(C4CCCCC4)c4n(c3c2)CCOc2ccccc2-4)nc2ccccc21` [Example 2-286, N-(1-methyl-1H-benzimidazol-2-yl)-12-cyclohexyl-6,7-dihydro-5-oxa-7a-azadibenzo[a,e]azulene-9-carboxamide], 100 to 1000 nM.
On the same count and under the same terms, for `CCOCC[C@@H]1CCCN(CCN2CCn3c(c(C4CCCCC4)c4ccc(C(=O)O)cc43)-c3ccc(C)cc32)C1` [Example 1-514, 13-cyclohexyl-5-{2-[(S)-3-(2-ethoxyethyl)piperidin-1-yl]ethyl}-3-methyl-6,7-dihydro-5H-benzo[5,6][1,4]diazepino[7,1-a]indole-10-carboxylic acid dihydrochloride] the value was < 100 nM; for `CN(C)CCN1CCn2c(c(C3CCCCC3)c3ccc(C(=O)O)cc32)-c2ccc(OCc3ccccn3)cc21` [Example 1-543, 13-cyclohexyl-5-(2-dimethylaminoethyl)-3-(pyridin-2-ylmethoxy)-6,7-dihydro-5H-benzo[5,6][1,4]diazepino[7,1-a]indole-10-carboxylic acid trihydrochloride], < 100 nM.
Consider `CC(C)(CN1CCN(CCO)CC1)NC(=O)c1ccc2c(C3CCCCC3)c3n(c2c1)CCOc1ccccc1-3` [Example 2-244, N-{2-[4-(2-hydroxyethyl)piperazin-1-yl]-1,1-dimethylethyl}-12-cyclohexyl-6,7-dihydro-5-oxa-7a-azadibenzo[a,e]azulene-9-carboxamide], for which the concentration for half-maximal inhibition (IC50) was in the range of 100 to 1000 nM.

As a reminder, the IC50 is the point on the concentration scale where inhibition reaches its midpoint.
